Patent US20070093520A1, “Method of treatment of diarrhea-predominant irritable bowel syndrome in a subject” (priority 2005, published 2007)

Tested on: diarrhea-predominant IBS subjects
Format: in vivo, human
Details: Cilansetron 2 mg, N=1454
Protocol: The study was performed in approximately 150 study centers. Approximately 1600 eligible subjects were to be given cilansetron 2 mg TID. At Visit 1, pre-treatment assessments were conducted. […] Subjects were to return to the study site one month later for Visit 3 (Day 31) for their first interim assessment. […] All subjects who discontinued from the study were to have the same post-study assessments required at Visit 7 performed at their early termination visit. […]
Stool specimens were analyzed at every visit for occult blood. An independent GERB had been established to provide advice on GI AEs during the course of the study.
Adverse events were assessed at Baseline, at each clinic visit, and at the end of the study (Month 12 or the early termination visit). All AEs, which occurred during the study were followed up in accordance with good medical practice until resolved or judged no longer clinically significant, or if a condition was chronic, until fully characterized. Adverse events could occur in the specified follow-up period and, regardless of the interval since the last administration of the study medication, were treated in the same manner as an AE which occurred during the treatment with study medication. Each AE was evaluated for duration, severity, seriousness, and causal relationship to the investigational drug. The action taken and the outcome were also recorded.
Specifically, subjects who were lost to follow-up and had no post-Baseline contact with the site were excluded from the Safety population. The subjects who discontinued from the study due to lost to follow-up were identified based on the information collected on the study termination CRF page.
After the pretreatment assessment at Visit 1 (Days […] to −3), subjects were to return to the study site for a Baseline assessment and start the treatment at Visit 2 (Day 1).
For the by time-interval analyses of disposition, prevalence of AEs, and of markedly abnormal and predefined changes in laboratory values, vital signs, and ECGs, the following interval windows were used:
Adverse events that were already present prior to the first dose of cilansetron study medication but increased in severity afterwards were considered as treatment-emergent.
The 5% cutoff point was based on the incidence within higher level terms.
Subjects were counted at most once for each primary system organ class and preferred term. Serious AEs that resolved prior to receiving study medication or occurred more than 30 days after the last dose of study medication were not included in the incidence tables. A listing of all SAEs is presented; SAEs with onset prior to receiving study medication or more than 30 days after discontinuation of study medication were flagged. The listing presents lower level term and preferred term of the SAE, severity, action taken, outcome, and relationship of the SAE, start and stop date of the SAE, study day of onset of the SAE, age, race, and sex.

Cc1nccn1C[C@H]1CCc2c(c3cccc4c3n2CCC4)C1=O [cilansetron, (R)-(−)-4,5,6,8,9,10-hexahydro-10-[(2-methyl-1H-imidazol-1-yl)methyl]-11H-pyrido-[3,2,1-jk]-carbazol-11-one]
129 (9%) n (%): TEAE incidence: Musculoskeletal and connective tissue disorders
155 (11%) n (%): TEAE incidence: Nervous system disorders
20 (1%) n (%): TEAE incidence: Rectal Haemorrhage
11 (<1%) n (%): TEAE incidence: Tonsillitis NOS | TEAE incidence: Toothache
5 (<1%) n (%): TEAE incidence: Paraesthesias and Dysaesthesias | TEAE incidence: Rectal Tenesmus | TEAE incidence: Tracheitis NOS
9 (<1%) n (%): TEAE incidence: Metabolism Tests NEC
1 (<1%) n (%): TEAE incidence: Intestinal Infections | TEAE incidence: Intestinal Mucosal Hypertrophy | TEAE incidence: Intestinal Spasm | TEAE incidence: Lacunar Infarction | TEAE incidence: Liver Function Tests NOS Abnormal | TEAE incidence: Lumbar Spinal Cord and Nerve Root Disorders | TEAE incidence: Lymphocyte Count Decreased | TEAE incidence: Lymphocyte Count Increased | TEAE incidence: Lymphocyte Percentage Decreased | TEAE incidence: Memory Impairment | TEAE incidence: Meralgia Paraesthetica | TEAE incidence: Migraine Aggravated | TEAE incidence: Monocyte Count Increased | TEAE incidence: Mouth Cyst | TEAE incidence: Narcolepsy and Hypersomnia | TEAE incidence: Nausea Aggravated | TEAE incidence: Non-Mechanical Ileus | TEAE incidence: Non-Site Specific Gastrointestinal Haemorrhages | TEAE incidence: Oesophageal Spasm | TEAE incidence: Oral Soft Tissue Signs and Symptoms | TEAE incidence: Painful Defaecation | TEAE incidence: Pancreatitis Acute | TEAE incidence: Peripheral Neuropathies NEC | TEAE incidence: Peripheral Neuropathy NOS | TEAE incidence: Peritonsillar Abscess | TEAE incidence: Petit Mal Epilepsy | TEAE incidence: Pharyngitis Streptococcal | TEAE incidence: Pharyngotonsillitis | TEAE incidence: Platelet Count Increased | TEAE incidence: Post Herpetic Neuralgia | TEAE incidence: Pseudofolliculitis Barbae | TEAE incidence: Pyelonephritis Acute NOS | TEAE incidence: Qrs Axis Abnormal | TEAE incidence: Radiculitis Lumbosacral | TEAE incidence: Rectal Polyp | TEAE incidence: Rectal Prolapse | TEAE incidence: Rectal Ulcer | TEAE incidence: Red Blood Cell Count Decreased | TEAE incidence: Red Blood Cell Sedimentation Rate Increased | TEAE incidence: Regurgitation of Food | TEAE incidence: Restless Leg Syndrome | TEAE incidence: Sensitivity of Teeth | TEAE incidence: Serum Ferritin Decreased | TEAE incidence: Sinus Headache | TEAE incidence: Sinusitis Chronic NOS | TEAE incidence: Skin and Subcutaneous Tissue Abscess NOS | TEAE incidence: Sleep Apnoea Syndrome | TEAE incidence: Sleep Apnoeas | TEAE incidence: Sleep Talking | TEAE incidence: Stomatitis | TEAE incidence: Taeniasis | TEAE incidence: Tinea Pedis | TEAE incidence: Tongue Disorders NEC | TEAE incidence: Torticollis | TEAE incidence: Tracheobronchitis
4 (<1%) n (%): TEAE incidence: Mineral and Electrolyte Analyses | TEAE incidence: Neuralgia NOS | TEAE incidence: Nitrite Urine Present | TEAE incidence: Oesophagitis NOS | TEAE incidence: Syncope
23 (2%) n (%): TEAE incidence: Physical Examination Procedures
6 (<1%) n (%): TEAE incidence: Migraine NOS | TEAE incidence: Mononeuropathies | TEAE incidence: Pneumonia NOS | TEAE incidence: Proctalgia | TEAE incidence: Sensory Abnormalities NEC
22 (2%) n (%): TEAE incidence: Intestinal Haemorrhages
36 (2%) n (%): TEAE incidence: Liver Function Analyses
2 (<1%) n (%): TEAE incidence: Memory Loss (Excl Dementia) | TEAE incidence: Neutrophil Count Decreased | TEAE incidence: Neutrophil Count Increased | TEAE incidence: Neutrophil Percentage Decreased | TEAE incidence: Oral Candidiasis | TEAE incidence: Otitis Externa NOS | TEAE incidence: Pituitary Analyses Anterior | TEAE incidence: Platelet Count Decreased | TEAE incidence: Red Blood Cell Analyses | TEAE incidence: Red Blood Cells Urine Positive | TEAE incidence: Renal Function Analyses | TEAE incidence: Sinusitis Acute NOS | TEAE incidence: Stomatitis and Ulceration | TEAE incidence: Stools Watery | TEAE incidence: Tension Headaches | TEAE incidence: Tonsillitis Acute NOS | TEAE incidence: Tooth Abscess
3 (<1%) n (%): TEAE incidence: Oral Dryness and Saliva Altered | TEAE incidence: Otitis Media NOS | TEAE incidence: Paraesthesia | TEAE incidence: Periodontitis | TEAE incidence: Platelet Analyses | TEAE incidence: Pruritus Ani | TEAE incidence: Pyelonephritis NOS | TEAE incidence: Retching | TEAE incidence: Sciatica | TEAE incidence: Sepsis, Bacteraemia and Viraemia | TEAE incidence: Tooth Caries NOS
13 (<1%) n (%): TEAE incidence: Irritable Bowel Syndrome Aggravated
66 (5%) n (%): TEAE incidence: Musculoskeletal and Connective Tissue Signs and Symptoms NEC
30 (2%) n (%): TEAE incidence: Neurological Signs and Symptoms NEC
32 (2%) n (%): TEAE incidence: Skeletal and Cardiac Muscle Analyses
15 (1%) n (%): TEAE incidence: Loose Stools
176 (12%) n (%): TEAE incidence: Investigations
7 (<1%) n (%): TEAE incidence: Migraine Headaches | TEAE incidence: Protein Urine Present | TEAE incidence: Tissue Enzyme Analyses NEC
